# Data taken from patent publication US6008240A, “2-(1H-4(5)-imidazoyl) cyclopropyl derivatives” (Gliatech, Inc., priority 1997, dated 1999).
# Counter-ions that a name gives are not always drawn.
# Target: T1, Histamine H3 Receptor (Rattus norvegicus, UniProt Q9QYN8)
# T1 construct: from tissue; host or cells: rat cerebral cortex membranes
# Experiment: In Vitro Histamine H3 Receptor Binding Analysis ([3H]-Nα-methylhistamine, rat cortical membranes)
# Conditions: not given
# Protocol: Histamine H3 receptor affinity was determined in rat cortical membranes using the H3 selective agonist ligand, [^3 H]-N^α -methylhistamine (78.9 Ci/mmole, DuPont NEN Research Products, Boston, Mass.) according to the method of West et al., (1990) Mol. Pharmacol. 38: 610-613 with modifications. Briefly, animals were sacrificed by decapitation and the cerebral cortex was rapidly removed. Rat cortices were mechanically homogenized with an Omni 1000 motor driven homogenizer in 10 volumes (wt/vol) of Krebs-Ringers Hepes buffer (pH 7.4) containing the following protease inhibitors; EDTA (10 mmol), PMSF (0.1 mM), chymostatin (0.2 mg/50 mL) and leupeptin (0.2 mg/50 mL). The homogenate was centrifuged in a Sorvall at ~40,000 x g for 30 min. The pellet was resuspended by mechanical homogenization in 25 mL water and lysed on ice for 30 min. The homogenate was recentrifuged and the membrane lysis was repeated. The membranes were recentrifuged and the final pellet was resuspended in 14 volumes of water to give approximately 200 μg protein/100 μl final concentration. The suspension was stored at -80° C. prior to use. Protein concentrations were determined by Coomassie Plus Protein Assay (Pierce, Rockford, Ill.).
# Nonspecific binding (NSB) was accounted for by the inclusion of thioperamide (10 μM). Samples were incubated for 40 minutes at 25° C. The samples were filtered through glass fiber strips, pre-washed with 0.3% polyethyleneimine, using a Brandell cell harvester. The filters were rapidly washed three times with 4 ml of 25 mM Tris buffer containing 145 mM NaCl (pH 7.4, 4° C.). Filters were transferred to polyethylene minivials and counted in 3.5 ml of scintillation fluid (Ecolume, ICN Biomedicals, Inc.). Using this procedure, the non-specific binding was less than 10% of the total binding and the binding to the glass fiber filters was negligible. Saturation and competition experiments were analyzed with the ReceptorFit saturation and competition curve fitting programs (Lundon Software, Inc., Cleveland, Ohio).
# T1 sequence (Q9QYN8 whole entry): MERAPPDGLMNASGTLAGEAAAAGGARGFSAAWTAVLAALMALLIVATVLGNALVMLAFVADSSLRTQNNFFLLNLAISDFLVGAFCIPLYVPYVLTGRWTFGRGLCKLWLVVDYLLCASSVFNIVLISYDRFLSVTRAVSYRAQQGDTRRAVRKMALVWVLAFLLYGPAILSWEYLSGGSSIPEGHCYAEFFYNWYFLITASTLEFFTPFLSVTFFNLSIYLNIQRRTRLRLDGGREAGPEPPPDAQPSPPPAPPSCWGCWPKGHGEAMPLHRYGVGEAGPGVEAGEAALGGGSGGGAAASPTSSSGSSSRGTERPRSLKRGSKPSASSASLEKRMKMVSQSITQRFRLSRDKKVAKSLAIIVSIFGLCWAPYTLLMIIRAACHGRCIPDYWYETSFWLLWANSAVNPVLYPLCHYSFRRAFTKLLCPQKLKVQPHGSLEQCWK
row,SMILES,Ki
1,"C(#C[C@@H]1C[C@H]1c1c[nH]cn1)CCC1CCCCC1 (racemic) [Example 55, (±)trans-4-(2-(4-cyclohexylbut-1-ynyl)cyclopropyl)imidazole]",1.8 ± 0.64 nM
2,"O=C(NCCCC1CCCCC1)[C@@H]1C[C@H]1c1c[nH]cn1 (relative stereo) [Example 29, N-[3-cyclohexylpropyl]-3(R)-[1H-imidazol-4-yl]-2(R)-cyclopropanamide and N-[3-cyclohexylpropyl]-3(S)-[1H-imidazol-4-yl]-2(S)-cyclopropanamide]",36 ± 8 nM
3,"C(=C/[C@@H]1C[C@H]1c1c[nH]cn1)/CCC1CCCCC1 (relative stereo) [Example 16, (±)-trans4-(2-(4-Cyclohexylbut-cis-1-enyl)cyclopropyl)imidazole]",12.2 ± 1 nM
4,"O=C(N[C@@H]1C[C@H]1c1c[nH]cn1)OCCC1CCCCC1 (relative stereo) [Example 46, (±)-trans-(Cyclohexylethoxy)-N-(2-imidazol-4-cyclopropyl) formamide]",29 ± 1.2 nM
5,"CC(C)(C)CC/C=C\[C@H]1C[C@H]1c1c[nH]cn1 [Example 42, (1R,2R)-4-(2-(5,5-Dimethyl-cis-hex-1-enyl)cyclopropyl)imidazole]",41 ± 4 nM
6,"O=C(CCCC1CCCCC1)[C@@H]1C[C@H]1c1c[nH]cn1 (racemic) [Example 10, (±)-trans-4-cyclohexyl-1-(2-imidazol-4-ylcyclopropyl) butan-1-one]",97 ± 21 nM
7,"O=C(N[C@@H]1C[C@H]1c1cnc[nH]1)OCCC1CCCC1 (relative stereo) [Example 49, (±)-trans-(2-Cyclopentylethoxy)-N-(2-imidazol-4-ylcyclopropyl) formamide]",13 ± 1.5 nM

# Same assay, conditions: rat cortical membranes; 0.8-1.2 nM [3H]-Nα-methylhistamine; 40 minutes at 25° C.; pH 7.4; read-out: H3 Receptor Ki
row,SMILES,Ki
1,"C(=C/[C@H]1C[C@@H]1c1c[nH]cn1)/CCC1CCCCC1 [Example 24, (1S, 2S)-trans-4-(2-(4-Cyclohexylbut-cis-1-enyl)cyclopropyl)imidazole]",108 ± 3 nM
2,"O=C(NCCCCC1CCCCC1)[C@@H]1C[C@H]1c1c[nH]cn1 (relative stereo) [Example 37, (±)-trans-N-(4-Cyclohexylbutyl)(2-imidazol-4-ylcyclopropyl)formamide]",68 ± 9.1 nM
3,"O=C(NCC1CC1)[C@@H]1C[C@H]1c1c[nH]cn1 (relative stereo) [Example 32, (±)-trans-N-(Cyclopropylmethyl)(2-imidazol-4-ylcyclopropyl)formamide]",876 ± 158 nM
4,N[C@@H](Cc1ccc(I)cc1)C(=O)N[C@@H]1C[C@H]1c1cnc[nH]1 [Example 44],10.4 ± 1.6 nM
5,"O=C(Nc1ccccc1)[C@@H]1C[C@H]1c1c[nH]cn1 (relative stereo) [Example 5, N-(phenyl)-3-(1H-imidazol-4-yl)-trans-(2R,3R)-cyclopropanamide and N-(phenyl)-3-(1H-imidazol-4-yl)-trans-(2S,3S)-cyclopropanamide hydrochloride]",267 ± 26 nM
6,"N[C@H](Cc1ccc(Br)cc1)C(=O)N[C@@H]1C[C@H]1c1c[nH]cn1 (racemic) [Example 43, (1R,2R)-trans-(±)-2-Amino-3-(4-bromophenyl)-N-(2-imidazol-4-ylcyclopropyl)propanamide]",13.7 ± 1.5 nM
7,"O=C(NCCC1CCCCC1)C1CC1c1c[nH]cn1 [Example 28, (1R, 2R)-trans-N-(2-Cyclohexylethyl)(2-imidazol-4-ylcyclopropyl)formamide]",46 ± 13 nM
8,"c1nc([C@@H]2C[C@H]2COCCCC2CCCCC2)c[nH]1 (racemic) [Example 18, (±)-trans-(3-Cyclohexylpropoxy)(2-imidazol-4-ylcyclopropyl)methane]",240 ± 6 nM
9,"CC(C)(C)CCC#C[C@H]1C[C@@H]1c1cnc[nH]1 [Example 52, (1S,2S)-trans-4-(2-(5,5-Dimethylhex-1-ynyl)cyclopropyl)imidazole]",5.3 ± 0.5 nM
10,"O=C(N[C@@H]1C[C@H]1c1cnc[nH]1)OCCCC1CCCCC1 (relative stereo) [Example 48, (±)-trans-(3-Cyclohexylpropoxy)-N-(2-imidazol-4-ylcyclopropyl) formamide]",55 ± 11 nM
